Values after ≈ are worked out from the molar mass of the structure shown.
Tests used:
Assay in all cases: ≥ marks a high value that may be exact or a test limit, other limits are often not marked, values filed in µg/mL are converted to µM
Escherichia coli = test system: Escherichia coli
Staphylococcus aureus = test system: Staphylococcus aureus
Bacillus cereus = test system: Bacillus cereus
[1] = test system: Pseudomonas aeruginosa ATCC 27853
[2] = test system: Acinetobacter baumannii ATCC 19606
[3] = test system: Candida albicans ATCC 10231
[4] = test system: Staphylococcus aureus ATCC 25923
Acinetobacter baumannii = test system: Acinetobacter baumannii
Pseudomonas aeruginosa = test system: Pseudomonas aeruginosa
[5] = test system: Escherichia coli ATCC 25922
[6] = test system: Enterococcus faecalis ATCC 29212
[7] = test system: Bacillus subtilis ATCC 23857
[8] = test system: Staphylococcus epidermidis ATCC 12228
[9] = test system: Klebsiella pneumoniae ATCC 700603
[10] = test system: Staphylococcus aureus ATCC 33591
Bacillus subtilis = test system: Bacillus subtilis
Salmonella typhimurium = test system: Salmonella typhimurium
[11] = test system: Staphylococcus aureus ATCC 29213
[12] = test system: Candida albicans ATCC 2002

**Q.** How did the MIC (Escherichia coli) turn out when `CC(C)C[C@H](NC(=O)[C@@H](N)Cc1ccccc1)C(=O)NCC(=O)N[C@@H](CCCCN)C(=O)N[C@H](C(=O)N[C@@H](Cc1ccccc1)C(=O)N[C@@H](CCCCN)C(=O)N[C@@H](CCCCN)C(=O)N[C@@H](C)C(=O)N[C@@H](CO)C(=O)N[C@@H](CCCCN)C(=O)N[C@H](C(=O)N[C@@H](Cc1ccccc1)C(=O)N1CCC[C@H]1C(=O)N[C@@H](C)C(=O)N[C@H](C(=O)N[C@H](C(=O)NCC(=O)N[C@@H](CCCCN)C(=O)N[C@H](C(=O)O)C(C)C)C(C)C)C(C)C)C(C)C)C(C)C` [FLGKVFKKASKVFPAVVGKV] was run?
**A.** 59.5 µM (≈ 128 µg/mL)

**Q.** What about the MIC (Staphylococcus aureus) of the same compound?
**A.** > 59.5 µM

**Q.** What about the MIC (Bacillus cereus) of the same compound?
**A.** ≥ 59.5 µM

**Q.** What does the source list for `CC(C)C[C@H](NC(=O)[C@H](Cc1ccc(O)cc1)NC(=O)[C@H](CCCCN)NC(=O)[C@H](Cc1ccccc1)NC(=O)[C@H](CC(C)C)NC(=O)[C@H](CCCN=C(N)N)NC(=O)[C@H](CCCCN)NC(=O)[C@H](Cc1ccccc1)NC(=O)[C@H](CC(C)C)NC(=O)[C@H](CCCN=C(N)N)NC(=O)[C@@H](N)CCCCN)C(=O)N[C@@H](CCCN=C(N)N)C(=O)N[C@@H](CCCN=C(N)N)C(=O)N[C@@H](Cc1ccccc1)C(=O)O` [KRLFKRLFKYLRRF]?
**A.** MIC [1]: 0.507 µM (≈ 1 µg/mL); MIC [2]: 1.01 µM (≈ 2 µg/mL); MIC [3]: 2.03 µM (≈ 4 µg/mL); MIC [4]: 0.507 µM (≈ 1 µg/mL); MIC (Acinetobacter baumannii): 1.01 µM (≈ 2 µg/mL); MIC (Pseudomonas aeruginosa): 2.03 µM (≈ 4 µg/mL); MIC [5]: 1.01 µM (≈ 2 µg/mL)

**Q.** `CC(C)C[C@H](NC(=O)CN)C(=O)N[C@@H](CC(C)C)C(=O)N[C@@H](CCCCN)C(=O)N[C@@H](CCCN=C(N)N)C(=O)N[C@@H](CC(C)C)C(=O)N[C@@H](CCCCN)C(=O)N[C@H](C(=O)N[C@@H](CC(C)C)C(=O)N[C@@H](C)C(N)=O)[C@@H](C)O` [GLLKRLKTLA] was tested. Which MIC [1] did it give?
**A.** 64 µM (≈ 71.1 µg/mL)

**Q.** What about the MIC [6] of the same compound?
**A.** > 512 µM

**Q.** What about the MIC [7] of the same compound?
**A.** ≥ 32 µM

**Q.** And the MIC [2]?
**A.** > 512 µM

**Q.** What about the MIC [4] of the same compound?
**A.** 256 µM (≈ 285 µg/mL)

**Q.** And the MIC [8]?
**A.** 64 µM (≈ 71.1 µg/mL)

**Q.** And the MIC [5]?
**A.** 256 µM (≈ 285 µg/mL)

**Q.** And the MIC [9]?
**A.** 256 µM (≈ 285 µg/mL)

**Q.** Which results are given for `CC[C@H](C)[C@H](NC(=O)CNC(=O)[C@H](CCCN=C(N)N)NC(=O)[C@H](CCCCN)NC(=O)[C@@H](NC(=O)CNC(=O)[C@H](CCCN=C(N)N)NC(=O)[C@H](CCCCN)NC(=O)[C@@H](NC(=O)CN)[C@@H](C)CC)[C@@H](C)CC)C(=O)N[C@@H](CCCCN)C(=O)N[C@@H](CCCN=C(N)N)C(N)=O` [GIKRGIKRGIKR]?
**A.** MIC [7]: ≥ 128 µM; MIC [5]: > 128 µM

**Q.** Which MIC [1] does the source give for `C[C@@H](O)[C@H](NC(=O)[C@H](CCCCN)NC(=O)[C@H](Cc1c[nH]c2ccccc12)NC(=O)[C@H](CCCN=C(N)N)NC(=O)[C@H](CCCCN)NC(=O)[C@H](Cc1c[nH]c2ccccc12)NC(=O)[C@H](Cc1c[nH]c2ccccc12)NC(=O)CN)C(=O)N[C@@H](Cc1c[nH]c2ccccc12)C(=O)N[C@@H](Cc1c[nH]c2ccccc12)C(N)=O` [GWWKRWKTWW] here?
**A.** 8 µM (≈ 12.2 µg/mL)

**Q.** What about the MIC [6] of the same compound?
**A.** 16 µM (≈ 24.3 µg/mL)

**Q.** What about the MIC [7] of the same compound?
**A.** 4 µM (≈ 6.08 µg/mL)

**Q.** What about the MIC [2] of the same compound?
**A.** 16 µM (≈ 24.3 µg/mL)

**Q.** What about the MIC [4] of the same compound?
**A.** 8 µM (≈ 12.2 µg/mL)

**Q.** What about the MIC [8] of the same compound?
**A.** 4 µM (≈ 6.08 µg/mL)

**Q.** And the MIC [5]?
**A.** 16 µM (≈ 24.3 µg/mL)

**Q.** And the MIC [9]?
**A.** 16 µM (≈ 24.3 µg/mL)

**Q.** With `CC[C@H](C)[C@H](NC(=O)[C@H](CCC(N)=O)NC(=O)[C@H](CCSC)NC(=O)[C@H](CCC(N)=O)NC(=O)[C@@H](NC(=O)[C@H](CCCCN)NC(=O)[C@H](Cc1ccccc1)NC(=O)[C@H](Cc1c[nH]c2ccccc12)NC(=O)[C@@H](N)CCCN=C(N)N)[C@@H](C)CC)C(=O)N[C@@H](CCCN=C(N)N)C(=O)N[C@@H](CCCN=C(N)N)C(=O)N[C@@H](Cc1c[nH]c2ccccc12)C(=O)N[C@@H](CCCCN)C(=O)N[C@@H](CC(N)=O)C(=O)N[C@@H](CCCCN)C(=O)N[C@@H](CCCCN)C(N)=O` [RWFKIQMQIRRWKNKK] as the compound, how does the MIC [10] read?
**A.** ≥ 64 µM

**Q.** What about the MIC [5] of the same compound?
**A.** 32 µM (≈ 71.9 µg/mL)

**Q.** With `CC(C)C[C@H](NC(=O)[C@H](CCCCN)NC(=O)[C@@H](NC(=O)[C@@H](NC(=O)[C@@H](NC(=O)CNC(=O)[C@H](CC(C)C)NC(=O)[C@@H](N)Cc1ccccc1)C(C)C)C(C)C)C(C)C)C(=O)N[C@@H](C)C(=O)N[C@@H](CO)C(=O)N[C@@H](CCCCN)C(=O)N[C@H](C(=O)N[C@@H](Cc1ccccc1)C(=O)N1CCC[C@H]1C(=O)N[C@@H](C)C(=O)N[C@H](C(=O)N[C@@H](Cc1ccccc1)C(=O)NCC(=O)N[C@@H](CCCCN)C(=O)N[C@H](C(=O)O)C(C)C)C(C)C)C(C)C` [FLGVVVKLASKVFPAVFGKV] as the compound, how does the MIC (Escherichia coli) read?
**A.** > 122 µM

**Q.** What about the MIC (Staphylococcus aureus) of the same compound?
**A.** 7.6 µM (≈ 16 µg/mL)

**Q.** What about the MIC (Bacillus cereus) of the same compound?
**A.** 15.2 µM (≈ 32 µg/mL)

**Q.** With `CC(C)[C@H](NC(=O)CNC(=O)[C@H](CCCN=C(N)N)NC(=O)[C@@H](NC(=O)[C@H](Cc1c[nH]c2ccccc12)NC(=O)[C@@H](NC(=O)[C@H](CCCN=C(N)N)NC(=O)CNC(=O)[C@H](Cc1c[nH]c2ccccc12)NC(=O)[C@H](CCCN=C(N)N)NC(=O)[C@@H](NC(=O)[C@@H](NC(=O)[C@@H](NC(=O)CN)C(C)C)C(C)C)C(C)C)C(C)C)C(C)C)C(=O)N[C@@H](CCCN=C(N)N)C(=O)N[C@@H](CCCN=C(N)N)C(N)=O` [GVVVRWGRVWVRGVRR] as the compound, how does the MIC (Escherichia coli) read?
**A.** 4 µM (≈ 7.75 µg/mL)

**Q.** What about the MIC (Bacillus subtilis) of the same compound?
**A.** 2 µM (≈ 3.87 µg/mL)

**Q.** And the MIC (Salmonella typhimurium)?
**A.** 2 µM (≈ 3.87 µg/mL)

**Q.** What about the MIC (Staphylococcus aureus) of the same compound?
**A.** 4 µM (≈ 7.75 µg/mL)

**Q.** Which results are given for `CC[C@H](C)[C@H](NC(=O)[C@H](CCCCN)NC(=O)[C@@H](NC(=O)[C@@H](NC(=O)[C@H](CCCCN)NC(=O)[C@@H](NC(=O)[C@@H](NC(=O)CNC(=O)[C@H](C)NC(=O)[C@@H](NC(=O)[C@@H](NC(=O)CN)[C@@H](C)CC)[C@@H](C)CC)[C@@H](C)CC)[C@@H](C)CC)[C@@H](C)CC)[C@@H](C)CC)C(N)=O` [GIIAGIIKIIKI]?
**A.** MIC [7]: ≥ 128 µM; MIC [5]: > 128 µM

**Q.** With `CC[C@H](C)[C@H](NC(=O)[C@H](Cc1cnc[nH]1)NC(=O)[C@H](CCCN=C(N)N)NC(=O)[C@H](CC(C)C)NC(=O)[C@H](CC(N)=O)NC(=O)[C@@H](N)CC(N)=O)C(=O)N[C@H](C(=O)N[C@@H](C)C(=O)N[C@@H](Cc1c[nH]c2ccccc12)C(=O)N[C@H]1CSSC[C@@H](C(=O)N[C@@H](C)C(=O)N[C@@H](CCCN=C(N)N)C(=O)N[C@@H](Cc2ccccc2)C(=O)N[C@@H](CCCCN)C(=O)N2CCC[C@H]2C(=O)N[C@@H](CCC(N)=O)C(=O)O)NC(=O)[C@H](C(C)C)NC(=O)[C@H](C)NC(=O)[C@H](CC(C)C)NC(=O)[C@H](CO)NC(=O)[C@H](Cc2ccc(O)cc2)NC(=O)[C@H](CC(N)=O)NC(=O)[C@H](CCCN=C(N)N)NC(=O)[C@H](CC(N)=O)NC(=O)[C@H](CCCCN)NC1=O)C(C)C` [NNLRHIVAWCKNRNYSLAVCARFKPQ] as the compound, how does the MIC [6] read?
**A.** > 64 µM

**Q.** And the MIC [2]?
**A.** > 64 µM

**Q.** What about the MIC [5] of the same compound?
**A.** > 64 µM

**Q.** And the MIC [11]?
**A.** > 64 µM

**Q.** Which MIC [7] does the source give for `CC[C@H](C)[C@H](NC(=O)CN)C(=O)N[C@@H](CCCN=C(N)N)C(=O)N[C@@H](CCCN=C(N)N)C(=O)NCC(=O)N[C@H](C(=O)N[C@H](C(=O)N[C@@H](CCCCN)C(=O)N[C@H](C(=O)N[C@H](C(=O)N[C@@H](CCCCN)C(=O)N[C@@H](CCCN=C(N)N)C(N)=O)[C@@H](C)CC)[C@@H](C)CC)[C@@H](C)CC)[C@@H](C)CC` [GIRRGIIKIIKR] here?
**A.** ≥ 32 µM

**Q.** And the MIC [5]?
**A.** 128 µM (≈ 182 µg/mL)

**Q.** For `CC(C)C[C@H](NC(=O)[C@H](CC(C)C)NC(=O)[C@H](CCCCN)NC(=O)[C@H](CCCCN)NC(=O)[C@H](CC(C)C)NC(=O)[C@H](Cc1cnc[nH]1)NC(=O)[C@H](CCCCN)NC(=O)[C@H](CC(C)C)NC(=O)[C@@H](N)Cc1ccccc1)C(N)=O` [FLKHLKKLL], which MIC [1] is on record?
**A.** 7.02 µM (≈ 7.99 µg/mL)

**Q.** And the MIC [2]?
**A.** 112 µM (≈ 128 µg/mL)

**Q.** What about the MIC [4] of the same compound?
**A.** 112 µM (≈ 128 µg/mL)

**Q.** What about the MIC [5] of the same compound?
**A.** 56.2 µM (≈ 63.9 µg/mL)

**Q.** For `CC[C@H](C)[C@H](NC(=O)[C@@H](NC(=O)[C@@H](NC(=O)[C@@H]1CCCN1C(=O)[C@H](Cc1c[nH]c2ccccc12)NC(=O)[C@H](Cc1ccccc1)NC(=O)[C@H](CCCN=C(N)N)NC(=O)[C@H](CCCCN)NC(=O)[C@@H](NC(=O)[C@@H](N)CCCN=C(N)N)[C@@H](C)CC)C(C)C)C(C)C)C(=O)N[C@@H](CCCN=C(N)N)C(=O)N[C@H](C(=O)N[C@H](C(=O)N[C@H](C(=O)O)C(C)C)C(C)C)[C@@H](C)O` [RIKRFWPVVIRTVV], which MIC [12] is on record?
**A.** ≥ 84.8 µM

**Q.** For `CC(C)C[C@H](NC(=O)[C@@H](N)Cc1ccccc1)C(=O)NCC(=O)N[C@@H](CCCCN)C(=O)N[C@H](C(=O)N[C@@H](Cc1ccccc1)C(=O)N[C@@H](CCCCN)C(=O)NCC(=O)N[C@H](C(=O)N[C@@H](CO)C(=O)N[C@@H](CCCCN)C(=O)N[C@H](C(=O)N[C@@H](Cc1ccccc1)C(=O)N1CCC[C@H]1C(=O)N[C@@H](C)C(=O)N[C@H](C(=O)N[C@@H](Cc1ccccc1)C(=O)NCC(=O)N[C@@H](CCCCN)C(=O)N[C@H](C(=O)O)C(C)C)C(C)C)C(C)C)C(C)C)C(C)C` [FLGKVFKGVSKVFPAVFGKV], which MIC (Escherichia coli) is on record?
**A.** 59.4 µM (≈ 128 µg/mL)

**Q.** What about the MIC (Staphylococcus aureus) of the same compound?
**A.** > 59.4 µM

**Q.** And the MIC (Bacillus cereus)?
**A.** ≥ 59.4 µM

— DBAASP
